# In US10555909B2, “Microencapsulation of B-alanine” (INNOBIO CORPORATION LIMITED, priority 2015, dated 2020):
# “And” between values parts separate entries of the source, which are not always exact repeats. Equal entries are not always repeated.
# Experiments:
# [1] = Size distribution of β-alanine before and after sustained-release microencapsulation; format: physicochemical
# [2] = Release rate experiment, USP <711> Dissolution, Apparatus 2, 50 rpm, delayed-release method B; format: physicochemical
# Procedure: Regarding to the measurement to the release rate in the present invention, the release rate experiment in 0.1N hydrochloric acid solution and pH6.8 phosphate buffer is conducted referring to USP<711>DISSOLUTIO and using Apparatus 2 with a rotate speed of 50 rpm by DELAYED-RELEASE DOSAGE FORMS method B.
# [3] = Tingling sensation evaluation after oral administration; format: in vivo
# Procedure: The evaluation method of the tingling sensation in the present invention is that: a subject respectively administrates unsustained-release microencapsulated material containing a certain amount of β-alanine and sustained-release microencapsulated β-alanine. The time, intensity and duration of having the abnormal sensation are recorded.
# The tingling sensation after oral administration of the β-alanine products A and D in Table 1 was evaluated according to a tingling sensation evaluation method, and an administration dosage, based on the β-alanine, is 22.8 mg/Kg (body weight).
# In the tingling evaluation experiment in Table 5, the dosage of the subject was 45.7 mg/kg (body weight).
smiles,measurement,setting,value
"NCCC(=O)O [Product A, β-alanine]",Size distribution 300-450 μm,[1]; fraction 300-450 μm,0%
same,Size distribution 450-900 μm,[1]; fraction 450-900 μm,43.7%
same,Size distribution 900-1000 μm,[1]; fraction 900-1000 μm,56.3%
same,Release in 0.1N hydrochloric acid solution (in words),[2]; 0.1N hydrochloric acid solution,quickly and completely released
same,Release in pH6.8 phosphate buffer (in words),[2]; pH6.8 phosphate buffer,quickly and completely released
same,Administration evaluation: Intensity,"[3]; 22.8 mg/Kg body weight based on β-alanine, one value per subject, 0 no sensation, 1-5 acceptable, 6-10 unacceptable",6 (2×) and 7
same,Duration of the abnormal sensation (lasting for),"[3]; 22.8 mg/Kg, per subject",45 min and lasting for 30 min. and 1 h
same,Time of having the abnormal sensation (onset),"[3]; 22.8 mg/Kg, per subject","15 min and sensation in the hands, face and ears in 10 min, and 25 min"
same,Dissolution in water (in words),,easy to be dissolved in water
